Earlier results on four compounds are cited in paper PMC9230590, “Pharmacokinetics and Tissue Distribution of Enavogliflozin in Mice and Rats” (Pharmaceutics, 2022).

SMILES strings stand for the structures. Where two headings read alike, the source gives them in different places.

The conditions of data set [1]: cited from earlier work.
In the next data set the test system is HbA1c. Conditions: cited from earlier work.
For data set [2] the following is noted: rats and humans, single oral dose of [14C]dapagliflozin; cited from earlier work.
Details of data set [3]: method as in PMID 32183468. Conditions: mice; cited from earlier work.
Where [4] appears, read: single oral administration of [14C]canagliflozin.
Where [5] appears, read: single oral administration of [14C]ipragliflozin.

With `Cc1ccc([C@@H]2O[C@H](CO)[C@@H](O)[C@H](O)[C@H]2O)cc1Cc1ccc(-c2ccc(F)cc2)s1` [canagliflozin], in data set [1] (setting [4]), the “fecal recovery of radioactivity” value is 85.4–93.7%, the “hydroxylated metabolites in fecal recovery” value is 7.6–64.3% and the “unchanged drug in fecal recovery” value was 3.5–38.7%. Besides, the “reduction of HbA1c” value with HbA1c (untreated type 2 diabetic (T2DM) patients) is listed as 0.97%.
As to `CCOc1ccc(Cc2cc([C@@H]3O[C@H](CO)[C@@H](O)[C@H](O)[C@H]3O)ccc2Cl)cc1` [dapagliflozin], the “drug-related radioactivity (parent and glucuronide metabolite) recovered in urine” value in data set [2] is “more than 90%”. Also, in the data set on HbA1c (monotherapy 2.5–10 mg, once daily for 24 weeks, untreated T2DM patients), the “reduction in HbA1c values” is recorded as 0.67–0.84%. In addition, in the data set on HbA1c (with conventional anti-diabetes medication, meta-analysis), the “reduction of mean HbA1c compared with conventional monotherapy” value is 0.54%. Moreover, the “ratio of AUC in kidney to AUC in plasma” value in data set [3] was 64.6 ± 31.8.
Regarding `OC[C@H]1O[C@@H](c2ccc(F)c(Cc3cc4ccccc4s3)c2)[C@H](O)[C@@H](O)[C@@H]1O` [ipragliflozin], in data set [1] (setting [5]), the “cumulative fecal recovery of drug-related radioactivity” value is given as 86.9% ± 2.6%, the “glucuronide metabolite identified in feces” value was “about 64%” and the “unchanged drug identified in feces” value is “less than 5%”. Besides, in data set [3], the “ratio of AUC in kidney to AUC in plasma” value is 38.4 ± 5.3.
`OC[C@H]1O[C@@H](c2ccc(Cl)c(Cc3ccc(O[C@H]4CCOC4)cc3)c2)[C@H](O)[C@@H](O)[C@@H]1O` [empagliflozin]: the “reduction of HbA1c” value with HbA1c (empagliflozin-treated patients) is given as 0.74–0.85%.
